Assay [1] deals with Potassium voltage-gated channel subfamily KQT member 2 (Mus musculus, UniProt Q9Z351). Kind of assay: Whole-cell patch-clamp on recombinant mouse KCNQ2 channels expressed in HEK 293 cells at -40 mV. Format: functional, cell-based, HEK293. (Patch clamp records ionic current or voltage across a cell membrane.)
Assay [2] addresses Potassium voltage-gated channel subfamily KQT member 2 (Mus musculus) (UniProt Q9Z351). Kind of assay: Efficacy for mKCNQ2 expressed in HEK293 cells relative to reference compound. It counts as functional, cell-based.

Our source for the EC50 and E/Eref values is ChEMBL document CHEMBL1147528, “(S)-N-[1-(4-cyclopropylmethyl-3,4-dihydro-2H-benzo[1,4]oxazin-6-yl)-ethyl]-3-(2-fluoro-phenyl)-acrylamide is a potent and efficacious KCNQ2 opener which inhibits induced hyperexcitability of rat hippocampal neurons” (Bioorg Med Chem Lett, 2004).

Sequence of Potassium voltage-gated channel subfamily KQT member 2 (Mus musculus) (Q9Z351 whole entry): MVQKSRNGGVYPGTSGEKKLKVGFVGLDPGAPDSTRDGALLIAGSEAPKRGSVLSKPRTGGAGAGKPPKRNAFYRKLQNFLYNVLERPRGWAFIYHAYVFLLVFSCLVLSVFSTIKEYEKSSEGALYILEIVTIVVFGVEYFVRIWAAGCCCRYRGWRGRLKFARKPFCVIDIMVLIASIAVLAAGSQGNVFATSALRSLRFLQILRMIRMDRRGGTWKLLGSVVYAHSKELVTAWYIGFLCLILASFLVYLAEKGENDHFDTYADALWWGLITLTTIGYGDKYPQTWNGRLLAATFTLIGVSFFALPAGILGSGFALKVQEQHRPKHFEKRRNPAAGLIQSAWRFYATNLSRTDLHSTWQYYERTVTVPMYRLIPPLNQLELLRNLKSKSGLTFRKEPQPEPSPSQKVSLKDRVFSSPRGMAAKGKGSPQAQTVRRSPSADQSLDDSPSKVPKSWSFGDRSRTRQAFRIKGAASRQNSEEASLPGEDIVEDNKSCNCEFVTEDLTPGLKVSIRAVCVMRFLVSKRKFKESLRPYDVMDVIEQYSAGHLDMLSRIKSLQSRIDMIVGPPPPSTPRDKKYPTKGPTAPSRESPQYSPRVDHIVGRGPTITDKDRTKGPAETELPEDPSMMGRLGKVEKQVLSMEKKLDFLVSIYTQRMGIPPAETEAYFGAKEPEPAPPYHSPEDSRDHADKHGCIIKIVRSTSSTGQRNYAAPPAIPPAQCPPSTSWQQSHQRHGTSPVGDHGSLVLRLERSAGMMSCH
Sequence of Potassium voltage-gated channel subfamily KQT member 2 (Q9Z351 whole entry): as above

As a reminder, the EC50 is the midpoint of the concentration-response curve. As for `C[C@H](NC(=O)/C=C/c1ccccc1F)c1ccc2c(c1)NCCO2`, the EC50 in assay [1] is 2000 nM. Further, in assay [2], the E/Eref was determined as 1.2.

In the case of `C[C@H](NC(=O)/C=C/c1ccccc1F)c1ccc2c(c1)N(CC1CC1)CCO2`, the EC50 in assay [1] was 60 nM. The compound also yielded an E/Eref in assay [2] of 1.83.

`CCN1CCOc2ccc([C@H](C)NC(=O)/C=C/c3ccccc3F)cc21`: the concentration for a half-maximal effect (EC50) in assay [1] is 200 nM. In assay [2], the E/Eref was determined as 2.1.

Turning to `C[C@H](NC(=O)/C=C/c1ccccc1)c1cccc(N2CCOCC2)c1`, the EC50 in assay [1] was 3280 nM. The compound further showed an E/Eref in assay [2] of 1.4.

In the case of `C[C@H](NC(=O)/C=C/c1ccccc1F)c1ccc2c(c1)N(C)CCO2`, the EC50 in assay [1] amounted to 940 nM. The compound further displayed an E/Eref in assay [2] of 1.8.

For the compound `CCOC(=O)Nc1ccc(NCc2ccc(F)cc2)cc1N` [EZOGABINE], the EC50 in assay [1] was 1300 nM. The same compound gave an E/Eref in assay [2] of 1.6.
